Test system: HCT116 cells
Assay: Accelerated senescence (SA-β-gal), HCT116
Format: cell-based, human
Details: HCT116, IC90 doses, up to 120 h
Protocol: The accelerated senescence examination was based on the analysis of pH 6.0-dependent β-galactosidase (SA-β-gal) expression together with senescence-related morphology, such as enlarged and flattened cells. HCT116 and H460 cells were seeded in 60 mm plates containing microscope coverslips and treated with UAs for up to 120 h. […] The cells were then washed twice with PBS (pH 6.0) and incubated at pH 6.0 with X-gal (5-bromo-4-chloro-3-indolyl-β-D-[…], substrate for SA-β-gal) staining solution (1 mg/mL X-gal, 40 mmol/L citric acid/sodium phosphate, pH 6.0, 5 mmol/L potassium ferrocyanide, 5 mmol/L potassium ferricyanide, 150 mmol/L NaCl, 2 mmol/L MgCl2). Following overnight incubation at 37 °C, cells were washed twice with PBS and observed under a light microscopy (OLYMPUS BX60; magnification ×200).

O=c1c2ccccc2n2cnc3ccc(NCCCN4CCN(CCCNc5c6ccccc6nc6cccc([N+](=O)[O-])c56)CC4)c1c32 [Compound C-2041]
accelerated senescence (SA-β-gal blue staining): a few cells with characteristic blue color were observed
